Columns and labels:
[1] = tested on: rats subjected to 60% blood loss; experiment: Rat hemorrhagic shock, 60% blood loss (Example 3); type: in vivo
Procedure: Rats infused with ketone bodies were subjected to 60% blood loss for at least 1 hour, followed by return of the shed blood. Endpoint measures of neuroprotection were quantitative analysis of neuronal survival and apoptosis in cortex, hippocampus and cerebellum as well as neurologic function exam scores. The objective was to determine the effectiveness of the D-form of beta-hydroxybutyrate (D-BHB) in conjunction with melatonin in protecting the brain from ischemia and providing protection from reperfusion injury after blood return.
The goal of the following experiments was to maintain 60% blood loss for at least three hours using a minimal amount of fluid in order to maintain viability. Sixty-percent blood loss was calculated by using the equation: Total blood volume=Animal body weight×0.06. A bolus volume of 1 ml ischemia/reperfusion protection composition per kilogram of animal body weight was given to animals after approximately 40% blood loss. Some animals only received a single 1 ml/kg bolus, while other animals received a slow infusion (100 μl/hr) to imitate an intravenous drip of solution after the bolus was given. […]
Once rats were fully anesthesized and stabilized for a 20 min period, blood loss was begun. […] Temperature was monitored with a rectal probe. […] Animal death was recorded when blood pressure, respiration, and precordial movement ceased (see FIG. 9 for a timeline). […]

[2] = tested on: heart of hibernating ground squirrels; details: in vivo, ip
Procedure: The overall strategy of these experiments was to measure incorporation of isotope from infused ^13C-BHB into the brain pool of ^13C-BHB and into the tricarboxylic acid (TCA) cycle-derived metabolites such as glutamate, glutamine and aspartate. The same experiments were performed in parallel using [1-^13C2]-glucose (FIG. 1). A quantitative determination of BHB blood-brain transport and a rate of consumption (relative to glucose consumption) was determined in non-hibernating ground squirrels at euthermic temperatures and in hibernating ground squirrels at 4-6° C. Ground squirrels were anesthetized (isoflurane) prior to placement in the magnet of the magnetic resonance (MR) instrument and were injected with ^13C-BHB or [1-^13C2]-glucose.

| Compound | survival following hemorrhagic shock versus 4 M NaCl ([1]; 60% blood loss, same osmolarity NaCl comparator) | survival versus NaCl, bolus followed by infusion ([1]; bolus followed by 100 μl/hr infusion, p-value<0.016) | transport into the heart during hibernation [2] |
| --- | --- | --- | --- |
| C[C@@H](O)CC(=O)O [D-BHB, D-beta-hydroxybutyrate] | survived longer | lived significantly longer |  |
| [13CH3][C@@H](O)[13CH2]C(=O)O [^13C-D-BHB, [2,4-^13C] D-beta-hydroxybutyrate] |  |  | efficiently transported into the heart |

— patent US9186340B2, “Ischemia/reperfusion protection compositions and methods of using” (priority 2007, dated 2015)
